Test results: the supplement of paper PMC10307832

Columns and labels:
Test in all cases: relative viability (nuclei count vs DMSO), 5 days (fraction); higher = more cells survive
[1] = test system: NCI-H2170
Method in brief: (§1)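 Nuclei were stained with Hoechst during a one-step fixation (final 0.05% Triton X-100, 1% formaldehyde, 1 ug/ml Hoechst) carried out 5 days after dosing, then counted on 4× images. The cells, lung cancer lines in 1536-well plates, had been dosed by pin tool the day after seeding with one drug alone or a fixed anchor-drug dose plus five library-drug doses (not always all listed) in √10 steps. Relative viability is the nuclei count in treated wells divided by that in vehicle wells, and each value is the median of duplicate plates.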

[2] = test system: NCI-H520
Method in brief: as §1

[3] = test system: EMC-BAC-2
Method in brief: as §1

[4] = test system: NCI-H1993
Method in brief: as §1

[5] = test system: PC-3 [JPC-3]
Method in brief: as §1

[6] = test system: NCI-H1975
Method in brief: as §1

[7] = test system: LCLC-97TM1
Method in brief: as §1

[8] = test system: NCI-H1944
Method in brief: as §1

[9] = test system: NCI-H1793
Method in brief: as §1

[10] = test system: NCI-H2009
Method in brief: as §1

[11] = test system: NCI-H1666
Method in brief: as §1

[12] = test system: PC-14
Method in brief: as §1

[13] = test system: NCI-H522
Method in brief: as §1

[14] = test system: NCI-H647
Method in brief: as §1

[15] = test system: SW 1573
Method in brief: as §1

[16] = test system: NCI-H727
Method in brief: as §1

[17] = test system: NCI-H460
Method in brief: as §1

[18] = test system: NCI-H2126
Method in brief: as §1

[19] = test system: NCI-H1755
Method in brief: as §1

[20] = test system: SK-LU-1
Method in brief: as §1

[21] = test system: NCI-H2347
Method in brief: as §1

COCC1(CO)C(=O)C2CCN1CC2 (stereo unspecified) [PRIMA-1MET] + O=C(CCCCCCC(=O)Nc1ccccc1)NO [Vorinostat] (partner 1 µM)
relative viability ([1]; first compound 0.2 µM): 1.05 | relative viability ([1]; first compound 0.6325 µM): 0.801 | relative viability ([1]; first compound 2 µM): 0.721 | relative viability ([1]; first compound 6.325 µM): 0.795 | relative viability ([1]; first compound 20 µM): 0.774 | relative viability ([2]; first compound 0.2 µM): 0.807 | relative viability ([2]; first compound 2 µM): 0.621 | relative viability ([2]; first compound 6.325 µM): 0.652 | relative viability ([2]; first compound 20 µM): 0.149 | relative viability ([3]; first compound 0.2 µM): 0.582 | relative viability ([3]; first compound 0.6325 µM): 0.36 | relative viability ([3]; first compound 2 µM): 0.335 | relative viability ([3]; first compound 6.325 µM): 0.527 | relative viability ([3]; first compound 20 µM): 0.271 | relative viability ([4]; first compound 0.2 µM): 0.743 | relative viability ([4]; first compound 2 µM): 0.629 | relative viability ([4]; first compound 6.325 µM): 0.651 | relative viability ([4]; first compound 20 µM): 0.619 | relative viability ([5]; first compound 0.2 µM): 0.964 | relative viability ([5]; first compound 0.6325 µM): 0.579 | relative viability ([5]; first compound 2 µM): 0.76 | relative viability ([5]; first compound 6.325 µM): 1.03 | relative viability ([5]; first compound 20 µM): 0.747 | relative viability ([6]; first compound 0.2 µM): 0.766 | relative viability ([6]; first compound 0.6325 µM): 0.657 | relative viability ([6]; first compound 2 µM): 0.736 | relative viability ([6]; first compound 6.325 µM): 0.725 | relative viability ([6]; first compound 20 µM): 0.698 | relative viability ([7]; first compound 0.2 µM): 0.547 | relative viability ([7]; first compound 0.6325 µM): 0.675 | relative viability ([7]; first compound 2 µM): 0.747 | relative viability ([7]; first compound 6.325 µM): 0.791 | relative viability ([7]; first compound 20 µM): 0.464 | relative viability ([8]; first compound 0.2 µM): 0.724 | relative viability ([8]; first compound 0.6325 µM): 0.4 | relative viability ([8]; first compound 2 µM): 0.428 | relative viability ([8]; first compound 6.325 µM): 0.531 | relative viability ([8]; first compound 20 µM): 0.539 | relative viability ([9]; first compound 0.2 µM): 0.932 | relative viability ([9]; first compound 0.6325 µM): 0.488 | relative viability ([9]; first compound 6.325 µM): 0.797 | relative viability ([9]; first compound 20 µM): 0.762 | relative viability ([10]; first compound 0.2 µM): 0.752 | relative viability ([10]; first compound 0.6325 µM): 0.801 | relative viability ([10]; first compound 2 µM): 0.668 | relative viability ([10]; first compound 6.325 µM): 0.5 | relative viability ([10]; first compound 20 µM): 0.381 | relative viability ([11]; first compound 0.2 µM): 1.03 | relative viability ([11]; first compound 0.6325 µM): 0.915 | relative viability ([11]; first compound 2 µM): 1.05 | relative viability ([11]; first compound 6.325 µM): 1.07 | relative viability ([11]; first compound 20 µM): 0.956 | relative viability ([12]; first compound 0.2 µM): 0.722 | relative viability ([12]; first compound 0.6325 µM): 0.755 | relative viability ([12]; first compound 2 µM): 0.728 | relative viability ([12]; first compound 6.325 µM): 0.777 | relative viability ([12]; first compound 20 µM): 0.019 | relative viability ([13]; first compound 0.2 µM): 0.724 | relative viability ([13]; first compound 0.6325 µM): 0.923 | relative viability ([13]; first compound 2 µM): 0.733 | relative viability ([13]; first compound 6.325 µM): 0.83 | relative viability ([13]; first compound 20 µM): 0.213 | relative viability ([14]; first compound 0.2 µM): 0.849 | relative viability ([14]; first compound 0.6325 µM): 0.444 | relative viability ([14]; first compound 2 µM): 0.549 | relative viability ([14]; first compound 6.325 µM): 0.538 | relative viability ([14]; first compound 20 µM): 0.596 | relative viability ([15]; first compound 0.2 µM): 0.83 | relative viability ([15]; first compound 0.6325 µM): 0.553 | relative viability ([15]; first compound 2 µM): 0.429 | relative viability ([15]; first compound 6.325 µM): 0.0463 | relative viability ([15]; first compound 20 µM): 0.0325 | relative viability ([16]; first compound 0.2 µM): 0.732 | relative viability ([16]; first compound 0.6325 µM): 0.394 | relative viability ([16]; first compound 6.325 µM): 1.17 | relative viability ([16]; first compound 20 µM): 0.689 | relative viability ([17]; first compound 0.2 µM): 0.949 | relative viability ([17]; first compound 0.6325 µM): 0.588 | relative viability ([17]; first compound 2 µM): 0.686 | relative viability ([17]; first compound 6.325 µM): 0.613 | relative viability ([17]; first compound 20 µM): 0.0194 | relative viability ([18]; first compound 0.2 µM): 0.784 | relative viability ([18]; first compound 0.6325 µM): 0.796 | relative viability ([18]; first compound 2 µM): 0.606 | relative viability ([18]; first compound 6.325 µM): 0.765 | relative viability ([18]; first compound 20 µM): 0.788 | relative viability ([19]; first compound 0.2 µM): 0.944 | relative viability ([19]; first compound 0.6325 µM): 0.765 | relative viability ([19]; first compound 2 µM): 0.721 | relative viability ([19]; first compound 6.325 µM): 0.748 | relative viability ([19]; first compound 20 µM): 0.663 | relative viability ([20]; first compound 0.2 µM): 0.852 | relative viability ([20]; first compound 0.6325 µM): 0.761 | relative viability ([20]; first compound 2 µM): 0.839 | relative viability ([20]; first compound 6.325 µM): 0.673 | relative viability ([20]; first compound 20 µM): 0.561 | relative viability ([21]; first compound 0.2 µM): 0.574 | relative viability ([21]; first compound 0.6325 µM): 0.656 | relative viability ([21]; first compound 2 µM): 0.348 | relative viability ([21]; first compound 6.325 µM): 0.551 | relative viability ([21]; first compound 20 µM): 0.327
